Experimental data from publication PMC10046369, “Low-Affinity/High-Selectivity Dopamine Transport Inhibition Sufficient to Rescue Cognitive Functions in the Aging Rat” (Biomolecules, 2023).

Experiments:
JNK1 = biological target: T1, JNK1 (Homo sapiens, UniProt P45983); assay: biochemical; parameters: KINOMEscan competition binding panel, per cent of control; settings: read-out: %Ctrl @ 2800nM
T1 construct: gene MAPK8
Method: (§1) A panel of binding assays covering 450 human kinases and disease-relevant mutations was performed by DiscoverX (KINOMEscan®, Freemont, CA, USA) according to the standard and validated protocol defined by the contractor. […] Kinase binding assays This study was outsourced to DiscoverX (KINOMEscan®, Freemont, CA, USA) and is compliant with the corresponding project BUY004-01-p-00001. […] Results are reported as percent control (% Ctrl), where lower numbers indicate stronger hits in the matrix on the following page(s). %Ctrl calculation: ((test compound signal-positive control signal) / (negative control signal – positive control signal)) x 100.

NDR1 = biological target: T2, NDR1 (Homo sapiens, UniProt Q15208); assay: biochemical; parameters: KINOMEscan competition binding panel, per cent of control; settings: read-out: %Ctrl @ 2800nM
T2 construct: gene STK38
Method: as §1

PIK3CB = PIK3CB (Homo sapiens, UniProt P42338); assay: biochemical; parameters: KINOMEscan competition binding panel, per cent of control; settings: read-out: %Ctrl @ 2800nM
Method: as §1

ROS1 = ROS1 (Homo sapiens, UniProt P08922); assay: biochemical; parameters: KINOMEscan competition binding panel, per cent of control; settings: read-out: %Ctrl @ 2800nM
Method: as §1

CTK = biological target: T3, CTK (Homo sapiens, UniProt P42679); assay: biochemical; parameters: KINOMEscan competition binding panel, per cent of control; settings: read-out: %Ctrl @ 2800nM
T3 construct: gene MATK
Method: as §1

CLK3 = CLK3 (Homo sapiens, UniProt P49761); assay: biochemical; parameters: KINOMEscan competition binding panel, per cent of control; settings: read-out: %Ctrl @ 2800nM
Method: as §1

CDC2L5 = biological target: T4, CDC2L5 (Homo sapiens, UniProt Q14004); assay: biochemical; parameters: KINOMEscan competition binding panel, per cent of control; settings: read-out: %Ctrl @ 2800nM
T4 construct: gene CDK13
Method: as §1

CDK9 = CDK9 (Homo sapiens, UniProt P50750); assay: biochemical; parameters: KINOMEscan competition binding panel, per cent of control; settings: read-out: %Ctrl @ 2800nM
Method: as §1

PDPK1 = PDPK1 (Homo sapiens, UniProt O15530); assay: biochemical; parameters: KINOMEscan competition binding panel, per cent of control; settings: read-out: %Ctrl @ 2800nM
Method: as §1

[1] = biological target: EGFR(L747-S752del, P753S) (Homo sapiens, UniProt P00533, DEL747-752/P753S); assay: biochemical; parameters: KINOMEscan competition binding panel, per cent of control; settings: read-out: %Ctrl @ 2800nM
Method: as §1

MARK1 = MARK1 (Homo sapiens, UniProt Q9P0L2); assay: biochemical; parameters: KINOMEscan competition binding panel, per cent of control; settings: read-out: %Ctrl @ 2800nM
Method: as §1

TNK2 = TNK2 (Homo sapiens, UniProt Q07912); assay: biochemical; parameters: KINOMEscan competition binding panel, per cent of control; settings: read-out: %Ctrl @ 2800nM
Method: as §1

INSR = INSR (Homo sapiens, UniProt P06213); assay: biochemical; parameters: KINOMEscan competition binding panel, per cent of control; settings: read-out: %Ctrl @ 2800nM
Method: as §1

STK36 = STK36 (Homo sapiens, UniProt Q9NRP7); assay: biochemical; parameters: KINOMEscan competition binding panel, per cent of control; settings: read-out: %Ctrl @ 2800nM
Method: as §1

MAK = MAK (Homo sapiens, UniProt P20794); assay: biochemical; parameters: KINOMEscan competition binding panel, per cent of control; settings: read-out: %Ctrl @ 2800nM
Method: as §1

STK39 = STK39 (Homo sapiens, UniProt Q9UEW8); assay: biochemical; parameters: KINOMEscan competition binding panel, per cent of control; settings: read-out: %Ctrl @ 2800nM
Method: as §1

MAP4K3 = MAP4K3 (Homo sapiens, UniProt Q8IVH8); assay: biochemical; parameters: KINOMEscan competition binding panel, per cent of control; settings: read-out: %Ctrl @ 2800nM
Method: as §1

EPHB4 = EPHB4 (Homo sapiens, UniProt P54760); assay: biochemical; parameters: KINOMEscan competition binding panel, per cent of control; settings: read-out: %Ctrl @ 2800nM
Method: as §1

PDGFRB = PDGFRB (Homo sapiens, UniProt P09619); assay: biochemical; parameters: KINOMEscan competition binding panel, per cent of control; settings: read-out: %Ctrl @ 2800nM
Method: as §1

KIT-autoinhibited = KIT-autoinhibited (Homo sapiens, UniProt P10721); assay: biochemical; parameters: KINOMEscan competition binding panel, per cent of control; settings: read-out: %Ctrl @ 2800nM
Method: as §1

MEK3 = biological target: T5, MEK3 (Homo sapiens, UniProt P46734); assay: biochemical; parameters: KINOMEscan competition binding panel, per cent of control; settings: read-out: %Ctrl @ 2800nM
T5 construct: gene MAP2K3
Method: as §1

ACVR1B = ACVR1B (Homo sapiens, UniProt P36896); assay: biochemical; parameters: KINOMEscan competition binding panel, per cent of control; settings: read-out: %Ctrl @ 2800nM
Method: as §1

FGFR4 = FGFR4 (Homo sapiens, UniProt P22455); assay: biochemical; parameters: KINOMEscan competition binding panel, per cent of control; settings: read-out: %Ctrl @ 2800nM
Method: as §1

MAP4K4 = MAP4K4 (Homo sapiens, UniProt O95819); assay: biochemical; parameters: KINOMEscan competition binding panel, per cent of control; settings: read-out: %Ctrl @ 2800nM
Method: as §1

PLK3 = PLK3 (Homo sapiens, UniProt Q9H4B4); assay: biochemical; parameters: KINOMEscan competition binding panel, per cent of control; settings: read-out: %Ctrl @ 2800nM
Method: as §1

[2] = biological target: T6, human dopamine transporter (hDAT) (Homo sapiens, UniProt Q01959); assay: radioligand competition binding ([3H]BTCP), hDAT expressed in CHO cells; assay type: cell-based
T6 construct: gene SLC6A3

PFCDPK1(P.falciparum) = biological target: T7, PFCDPK1(P.falciparum) (Plasmodium falciparum, UniProt P62344); assay: biochemical; parameters: KINOMEscan competition binding panel, per cent of control; settings: read-out: %Ctrl @ 2800nM
T7 construct: gene CDPK1

Sequence of INSR (P06213 whole entry): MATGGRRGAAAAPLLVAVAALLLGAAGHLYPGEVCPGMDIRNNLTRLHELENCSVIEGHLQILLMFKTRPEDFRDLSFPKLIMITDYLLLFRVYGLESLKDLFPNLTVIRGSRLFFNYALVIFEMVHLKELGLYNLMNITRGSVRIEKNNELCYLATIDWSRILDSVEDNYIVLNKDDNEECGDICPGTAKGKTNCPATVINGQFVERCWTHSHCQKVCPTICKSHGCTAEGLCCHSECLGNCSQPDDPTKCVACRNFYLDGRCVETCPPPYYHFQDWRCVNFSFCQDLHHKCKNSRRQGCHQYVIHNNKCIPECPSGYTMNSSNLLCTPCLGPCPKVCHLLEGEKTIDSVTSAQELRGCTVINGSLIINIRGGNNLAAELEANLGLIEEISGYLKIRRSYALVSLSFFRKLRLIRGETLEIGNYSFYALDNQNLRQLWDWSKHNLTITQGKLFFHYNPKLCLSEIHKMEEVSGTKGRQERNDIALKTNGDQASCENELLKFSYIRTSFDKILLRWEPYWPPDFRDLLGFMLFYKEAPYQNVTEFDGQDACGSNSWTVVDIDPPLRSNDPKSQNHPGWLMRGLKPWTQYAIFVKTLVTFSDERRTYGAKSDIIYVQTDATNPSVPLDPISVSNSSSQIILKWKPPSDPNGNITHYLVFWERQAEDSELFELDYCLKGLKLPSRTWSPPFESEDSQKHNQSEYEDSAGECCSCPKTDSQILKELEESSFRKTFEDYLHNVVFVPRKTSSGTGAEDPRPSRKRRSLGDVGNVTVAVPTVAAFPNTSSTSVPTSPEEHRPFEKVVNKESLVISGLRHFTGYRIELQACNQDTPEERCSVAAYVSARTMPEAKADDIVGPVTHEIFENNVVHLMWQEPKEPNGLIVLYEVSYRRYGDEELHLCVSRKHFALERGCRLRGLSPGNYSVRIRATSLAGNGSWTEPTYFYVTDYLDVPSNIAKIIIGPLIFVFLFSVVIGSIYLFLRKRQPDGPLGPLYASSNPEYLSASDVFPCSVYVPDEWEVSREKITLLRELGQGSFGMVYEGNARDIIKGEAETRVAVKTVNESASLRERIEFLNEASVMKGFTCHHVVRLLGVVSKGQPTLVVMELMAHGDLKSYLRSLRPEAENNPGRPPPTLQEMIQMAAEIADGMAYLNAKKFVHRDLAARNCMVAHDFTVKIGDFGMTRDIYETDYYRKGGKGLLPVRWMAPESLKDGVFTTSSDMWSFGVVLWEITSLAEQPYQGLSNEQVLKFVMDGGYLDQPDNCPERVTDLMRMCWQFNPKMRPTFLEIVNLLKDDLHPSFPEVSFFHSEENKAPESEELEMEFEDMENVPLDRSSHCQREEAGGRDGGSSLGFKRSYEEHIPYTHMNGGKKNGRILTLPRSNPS
T5 sequence (P46734 whole entry): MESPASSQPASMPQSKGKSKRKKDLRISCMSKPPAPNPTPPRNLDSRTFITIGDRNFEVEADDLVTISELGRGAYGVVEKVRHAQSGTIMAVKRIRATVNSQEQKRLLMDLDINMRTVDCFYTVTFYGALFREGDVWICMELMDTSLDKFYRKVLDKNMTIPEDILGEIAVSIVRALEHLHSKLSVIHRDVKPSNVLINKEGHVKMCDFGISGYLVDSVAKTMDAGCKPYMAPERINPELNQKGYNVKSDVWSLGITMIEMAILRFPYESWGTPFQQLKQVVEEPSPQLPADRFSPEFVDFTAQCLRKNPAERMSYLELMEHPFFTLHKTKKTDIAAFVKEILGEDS
Sequence of FGFR4 (P22455 whole entry): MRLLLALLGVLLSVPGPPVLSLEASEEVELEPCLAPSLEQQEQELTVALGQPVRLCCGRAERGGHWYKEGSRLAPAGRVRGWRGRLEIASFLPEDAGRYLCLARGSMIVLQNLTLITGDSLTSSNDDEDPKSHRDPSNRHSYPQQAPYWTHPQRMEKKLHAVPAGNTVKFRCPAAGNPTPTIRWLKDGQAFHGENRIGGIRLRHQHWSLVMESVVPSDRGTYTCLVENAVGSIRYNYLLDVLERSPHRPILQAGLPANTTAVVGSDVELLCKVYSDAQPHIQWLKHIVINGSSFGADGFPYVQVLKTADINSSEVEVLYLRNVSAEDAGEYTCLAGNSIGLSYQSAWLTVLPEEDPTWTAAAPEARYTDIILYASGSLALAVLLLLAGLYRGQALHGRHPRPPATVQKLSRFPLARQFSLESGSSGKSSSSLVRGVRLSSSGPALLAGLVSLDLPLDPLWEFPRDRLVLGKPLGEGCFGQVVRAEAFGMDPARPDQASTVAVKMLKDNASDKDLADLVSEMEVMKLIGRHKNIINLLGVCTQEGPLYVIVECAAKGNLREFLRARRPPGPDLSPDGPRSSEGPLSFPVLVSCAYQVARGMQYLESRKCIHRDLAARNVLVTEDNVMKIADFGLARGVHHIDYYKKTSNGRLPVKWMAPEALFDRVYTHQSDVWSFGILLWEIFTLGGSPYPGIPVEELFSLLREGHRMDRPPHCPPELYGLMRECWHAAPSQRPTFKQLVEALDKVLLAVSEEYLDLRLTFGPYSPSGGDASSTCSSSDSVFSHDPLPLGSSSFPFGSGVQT
Sequence of ACVR1B (P36896 whole entry): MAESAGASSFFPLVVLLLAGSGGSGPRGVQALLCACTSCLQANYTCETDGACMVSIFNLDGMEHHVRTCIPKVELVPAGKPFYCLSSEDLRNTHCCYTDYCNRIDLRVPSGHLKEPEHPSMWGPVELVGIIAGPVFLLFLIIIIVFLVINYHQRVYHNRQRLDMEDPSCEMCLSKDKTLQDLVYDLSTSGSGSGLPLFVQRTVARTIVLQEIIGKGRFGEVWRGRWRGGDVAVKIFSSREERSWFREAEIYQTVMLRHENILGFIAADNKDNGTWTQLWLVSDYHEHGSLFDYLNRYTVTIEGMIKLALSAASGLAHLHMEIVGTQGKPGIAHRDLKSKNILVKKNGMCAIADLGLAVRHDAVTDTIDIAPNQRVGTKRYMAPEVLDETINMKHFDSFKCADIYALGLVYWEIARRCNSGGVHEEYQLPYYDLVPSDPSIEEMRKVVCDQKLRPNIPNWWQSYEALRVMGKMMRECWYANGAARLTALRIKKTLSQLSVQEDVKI
Sequence of EPHB4 (P54760 whole entry): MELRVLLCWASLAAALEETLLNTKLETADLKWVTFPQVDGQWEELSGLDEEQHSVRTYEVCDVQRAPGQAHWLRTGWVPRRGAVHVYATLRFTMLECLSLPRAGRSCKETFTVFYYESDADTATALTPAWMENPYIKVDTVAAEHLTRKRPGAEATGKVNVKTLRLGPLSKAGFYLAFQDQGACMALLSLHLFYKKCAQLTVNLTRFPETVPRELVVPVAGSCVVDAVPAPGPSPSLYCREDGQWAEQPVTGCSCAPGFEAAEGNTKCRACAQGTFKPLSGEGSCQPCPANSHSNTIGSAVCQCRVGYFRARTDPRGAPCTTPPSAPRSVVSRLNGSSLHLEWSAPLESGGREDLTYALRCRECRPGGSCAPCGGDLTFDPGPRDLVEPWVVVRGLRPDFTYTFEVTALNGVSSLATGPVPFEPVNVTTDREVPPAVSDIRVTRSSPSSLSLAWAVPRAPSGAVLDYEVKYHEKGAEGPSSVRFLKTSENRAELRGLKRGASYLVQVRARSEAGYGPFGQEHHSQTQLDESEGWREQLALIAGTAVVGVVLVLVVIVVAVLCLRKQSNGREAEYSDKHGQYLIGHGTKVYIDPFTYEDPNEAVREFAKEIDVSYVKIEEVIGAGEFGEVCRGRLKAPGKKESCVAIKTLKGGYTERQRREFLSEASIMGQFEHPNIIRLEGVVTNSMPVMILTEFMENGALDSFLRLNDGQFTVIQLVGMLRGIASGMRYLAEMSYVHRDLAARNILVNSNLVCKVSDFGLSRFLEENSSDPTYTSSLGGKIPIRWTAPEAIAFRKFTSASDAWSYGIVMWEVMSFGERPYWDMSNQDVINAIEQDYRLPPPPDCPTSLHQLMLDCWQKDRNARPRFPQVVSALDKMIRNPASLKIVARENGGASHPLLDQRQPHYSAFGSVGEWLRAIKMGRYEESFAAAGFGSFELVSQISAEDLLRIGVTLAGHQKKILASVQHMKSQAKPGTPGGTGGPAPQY
Sequence of PLK3 (Q9H4B4 whole entry): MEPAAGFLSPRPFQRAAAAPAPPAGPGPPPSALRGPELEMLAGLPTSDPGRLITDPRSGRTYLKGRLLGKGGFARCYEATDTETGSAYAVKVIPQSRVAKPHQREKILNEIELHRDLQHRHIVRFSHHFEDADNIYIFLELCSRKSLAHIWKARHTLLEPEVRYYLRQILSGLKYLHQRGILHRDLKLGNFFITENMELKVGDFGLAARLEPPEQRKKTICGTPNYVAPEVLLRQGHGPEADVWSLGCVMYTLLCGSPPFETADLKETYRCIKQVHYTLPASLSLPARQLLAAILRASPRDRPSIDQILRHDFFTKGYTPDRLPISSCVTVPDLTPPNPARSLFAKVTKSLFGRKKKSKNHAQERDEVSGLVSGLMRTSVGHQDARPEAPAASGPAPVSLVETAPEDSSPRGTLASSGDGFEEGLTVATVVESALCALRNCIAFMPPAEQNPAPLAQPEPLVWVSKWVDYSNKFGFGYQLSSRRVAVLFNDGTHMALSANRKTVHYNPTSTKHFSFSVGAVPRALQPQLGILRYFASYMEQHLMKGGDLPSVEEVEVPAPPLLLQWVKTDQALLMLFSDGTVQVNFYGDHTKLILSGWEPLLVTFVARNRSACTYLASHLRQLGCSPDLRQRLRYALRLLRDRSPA
Sequence of CDK9 (P50750 whole entry): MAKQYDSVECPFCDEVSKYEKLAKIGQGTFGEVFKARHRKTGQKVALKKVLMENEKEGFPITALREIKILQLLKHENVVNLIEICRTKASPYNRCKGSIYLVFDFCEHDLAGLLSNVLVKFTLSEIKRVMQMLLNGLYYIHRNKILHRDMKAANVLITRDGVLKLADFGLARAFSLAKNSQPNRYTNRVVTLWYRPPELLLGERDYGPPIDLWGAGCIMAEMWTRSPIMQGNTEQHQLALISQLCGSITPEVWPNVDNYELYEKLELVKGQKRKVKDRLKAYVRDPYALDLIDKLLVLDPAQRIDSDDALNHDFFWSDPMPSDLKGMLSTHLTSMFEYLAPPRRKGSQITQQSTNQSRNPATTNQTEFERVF

[O-][S@@+](Cc1cncs1)C(c1ccccc1)c1ccccc1 [S-CE-123, (S)-5-((Benzhydrylsulfinyl)Methyl)Thiazole]
remaining binding at 2.8 µM (JNK1): 67%
remaining binding at 2.8 µM (NDR1): 83%
remaining binding at 2.8 µM (PIK3CB): 93%
remaining binding at 2.8 µM (ROS1): 91%
remaining binding at 2.8 µM (CTK): 51%
remaining binding at 2.8 µM (CLK3): 95%
remaining binding at 2.8 µM (CDC2L5): 98%
remaining binding at 2.8 µM (CDK9): 92%
remaining binding at 2.8 µM (PDPK1): 95%
remaining binding at 2.8 µM [1]: 96%
remaining binding at 2.8 µM (MARK1): 93%
remaining binding at 2.8 µM (TNK2): 100%
remaining binding at 2.8 µM (INSR): 100%
remaining binding at 2.8 µM (STK36): 88%
remaining binding at 2.8 µM (MAK): 94%
remaining binding at 2.8 µM (STK39): 100%
remaining binding at 2.8 µM (MAP4K3): 100%
remaining binding at 2.8 µM (EPHB4): 95%
remaining binding at 2.8 µM (PDGFRB): 99%
remaining binding at 2.8 µM (KIT-autoinhibited): 86%
remaining binding at 2.8 µM (MEK3): 86%
remaining binding at 2.8 µM (ACVR1B): 100%
remaining binding at 2.8 µM (FGFR4): 100%
remaining binding at 2.8 µM (MAP4K4): 100%
remaining binding at 2.8 µM (PLK3): 95%
Ki [2]: 0.61 µM
remaining binding at 2.8 µM (PFCDPK1(P.falciparum)): 70%
